From patent publication US9554979B2, “Hair care compositions and methods of use” (The Procter & Gamble Company, priority 2011, dated 2017)
Like-named read-outs stand apart in the source and are kept apart here.

Legend:
[1] = Qualitative experimental solubility scoring of apigenin in 32 solvents; format: physicochemical; set-up: key: 1 = Completely Dissolved; 2 = Very Swollen; 3 = Swollen; 4 = Slightly Swollen; 5 = Hardly Swollen; 6 = Not touched; — = Assignment Unclear
Description: (§1) HSPs and the solubility sphere for apigenin are optimized using the fitting method in the software HSPIP version 3.1.06 from Charles M. Hansen Consulting, Hørsholm, Denmark, hansen-solubility.com. Qualitative experimental solubilities for apigenin in 32 diverse potential solvents are determined using the scoring system at the bottom of Table 1. In the fitting function within HSPiP, solvents with scores of 1 and those with scores of 2-5 are categorized as “good” and “bad” solvents, respectively. […] Because the radius can be unbounded, fits with radii larger than 95% of the radius distribution are removed from these 50 trials (≦8.5 MPa^0.5). • 2. Determine the ranges for δD, δP, δH for the remaining fits. • 3. Locate the fit closest to this point using the Ra equation above. • 4. Chose the values for δD, δP, δH from Step 2 for the HSP's and the value of Ra from Step 3 for the radius.

[2] = Experimentally observed apigenin solubility in solubilizing agents and solvents; format: physicochemical
Source text: Non-limiting examples of solubilizing agents, which have suitable Hansen Solubility Parameters and may be used to solubilize apigenin include triethanolamine (CAS No. 102-71-6); diethanolamine (CAS No. 203-868-0); ethanolamine (CAS No. 141-43-5); N-methylformamide (CAS No. 123-39-7); 2-dimethylaminoethanol (CAS No. 203-542-8); 2-dimethylamino-2-propanol (108-16-7); ethylenediamine (CAS No. 107-15-3); 2-amino-2-methyl-1-propanol (CAS No. 124-68-5); laurocapram (CAS No. 59227-89-3); and dimethyl capramide (Spectrasolv, CAS No. 14433-76-2). Non-limiting examples of solvents, which have suitable Hansen Solubility Parameters and may be used in combination with one or more solubilizing agents include dipropyleneglycol (CAS No. 110-98-5); propylene glycol (Hydrolite™ 5, CAS No. […]); butylene glycol (CAS No. 107-88-0); 1,4-butanediol (CAS No. 110-63-4); 3-allyloxy-1,2-propanediol (CAS No. 123-34-2); dipropylene glycol n-butyl ether (CAS No. 29911-28-2); 1,2-hexanediol (CAS No. 6920-22-5); dimethyl isosorbide (Arlasolve™ CAS No. 5306-85-4); ethanol (CAS No. 64-17-5); 1,3-butanediol (CAS No. 107-88-0); 1,3-propanediol (CAS No. 504-63-2); 2,2′-thiodiethanol (CAS No. 111-48-8); and 1,6-hexanediol (CAS No. 629-11-8). Table 2 provides a summary of various solubilizing agents and solvents and their respective HSP values, along with experimentally observed apigenin solubility.

[3] = Apigenin premixtures with various solubilizing agents, solubility; format: physicochemical; details: organic solvent or mixture, thermodynamic from solid
Description: According to another embodiment of the invention, a process for preparing a hair care composition includes mixing apigenin and a solubilizing agent at a temperature sufficient to allow dissolution of the apigenin in the solubilizing agent to form a premixture; combining the premixture with an aqueous carrier to form the hair care composition; and optionally, adjusting the pH of the hair care composition with acid to within a range from about 3 to about 10. The premixture is prepared by combining apigenin and one or more solubilizing agents. Solubilization energy (e.g., stiffing, sonication, milling, heat, etc.) may be applied to accelerate the dissolution process. For example, a premixture of apigenin in triethanolamine may be prepared by combining apigenin and triethanolamine in a single vessel and heating the mixture to 70° C. while stirring until a clear solution results. According to one aspect of the exemplary method of making the premixture, the combined apigenin and triethanolamine are mixed at 50-100 rpm using a IKA RET CV-S1 mixer. According to another aspect, the combination is mixed at 300-500 rpm using a IKA Eurostar PWR CV-S1 mixer.

[4] = Hansen Solubility Parameter fitting for apigenin (HSPiP); details: fitted in HSPiP v. 3.1.06 from solubility scores in 32 solvents
Description: as §1
Using this protocol, apigenin HSP values and solvent radius are determined to be δD=18.7, δP=13.5, δH=13.9 and Ra=6.8 (all in MPa^0.5). This sphere defines the initial region encompassing solvents into which apigenin will be soluble. (Note HSPiP v. 3.1.06 is used herein to determine all HSPs by 1) lookup if available within the program's internal database; 2) estimation if not in the database using the Y-MB method; or 3) via the procedure described above (apigenin only).)

[5] = in water and nearly all solvents suitable for pharmaceutical, cosmetic, and food additive formulations (practically insoluble); cited from earlier work

## O=c1cc(-c2ccc(O)cc2)oc2cc(O)cc(O)c12 [apigenin, 5,7-dihydroxy-2-(4-hydroxyphenyl)-4H-1-benzopyran-4-one]
[1]; in 1,4-Dioxane
  Solubility Score: 5
[1]; in 1-Butanol
  Solubility Score: 4
[1]; in 2-Phenoxy Ethanol
  Solubility Score: 4
[1]; in 2-Propanol
  Solubility Score: 4
[1]; in Acetone
  Solubility Score: 5
[1]; in Acetonitrile
  Solubility Score: 5
[1]; in Carbon Tetrachloride
  Solubility Score: 6
[1]; in Chloroform
  Solubility Score: 5
[1]; in Cyclohexane
  Solubility Score: 6
[1]; in Cyclohexanol
  Solubility Score: 4
[1]; in Cyclohexanone
  Solubility Score: 4
[1]; in Diacetone Alcohol
  Solubility Score: 4
[1]; in Dichloromethane
  Solubility Score: 5
[1]; in Dimethyl Formamide (DMF)
  Solubility Score: 1
[1]; in Dimethyl Sulfoxide (DMSO)
  Solubility Score: 1
[1]; in Ethyl Acetate
  Solubility Score: 5
[1]; in Hexane
  Solubility Score: 6
[1]; in Methanol
  Solubility Score: 4
[1]; in Methyl Ethyl Ketone (MEK)
  Solubility Score: 5
[1]; in Methyl Isobutyl Ketone (MIBK)
  Solubility Score: 5
[1]; in N-Methyl-2-Pyrrolidone (NMP)
  Solubility Score: 1
[1]; in N-methylformamide
  Solubility Score: 1
[1]; in Propylene Carbonate
  Solubility Score: 5
[1]; in Propylene Glycol Monomethyl Ether
  Solubility Score: 2
[1]; in Propylene Glycol Monomethyl Ether Acetate
  Solubility Score: 5
[1]; in Tetrahydrofuran (THF)
  Solubility Score: 4
[1]; in Toluene
  Solubility Score: 6
[1]; in gamma-Butyrolactone (GBL)
  Solubility Score: 4
[1]; in n-Butyl Acetate
  Solubility Score: 5
[1]; in n-Butyl Acrylate
  Solubility Score: 5
[1]; in p-Xylene
  Solubility Score: 6
[2]; in 1,2-hexanediol at 90 C.
  Experimental solubility: 0.4% at 90 C.
[2]; in 1,3-butanediol at 98 C.
  Experimental solubility: 1.52% at 98 C.
[2]; in 1,3-propanediol at 100 C.
  Experimental solubility: 0.73% at 100 C.
[2]; in 1,4-butanediol at 110 C.
  Experimental solubility: 1.0% at 110 C.
[2]; in 1,6-Hexanediol at 137 C.
  Experimental solubility: 4.12% at 137 C.
[2]; in 2,2′-thiodiethanol at 103 C.
  Experimental solubility: 0.47% at 103 C.
[2]; in 2-amino-2-methyl-1-propanol at 71 C.
  Experimental solubility: 20.03% at 71 C.
[2]; in 2-dimethylamino-2-propanol (CAS 108-16-7) at 21 C.
  Experimental solubility: 20.18% at 21 C.
[2]; in 2-dimethylaminoethanol at 29 C.
  Experimental solubility: 19.95% at 29 C.
[2]; in 3-allyloxy-1,2-propanediol at 120 C.
  Experimental solubility: 1.0% at 120 C.
[2]; in Dimethyl capramide at RT
  Experimental solubility: 16.0% at RT
[2]; in Ethanol at 21 C. and 50 C.
  Experimental solubility: 0.32% at 21 C. and 50 C.
[2]; in Laurocapram at 21 C.
  Experimental solubility: 13.0% at 21 C.
[2]; in N-methylformamide
  Experimental solubility: Ppt upon cooling
[2]; in butylene glycol at 98 C.
  Experimental solubility: 1.52% at 98 C.
[2]; in diethanolamine at 128 C.
  Experimental solubility: 20.25% at 128 C.
[2]; in dimethyl isosorbide at 100 C.
  Experimental solubility: 1.54% at 100 C.
[2]; in dipropylene glycol n-butyl ether at 90 C.
  Experimental solubility: 0.6% at 90 C.
[2]; in dipropyleneglycol at 115 C.
  Experimental solubility: 2.19% at 115 C.
[2]; in ethanolamine at 76 C.
  Experimental solubility: 20.31% at 76 C.
[2]; in ethylenediamine at 28 C.
  Experimental solubility: 20.03% at 28 C.
[2]; in propylene glycol (CAS 5343-92-0) at 100 C.
  Experimental solubility: 0.62% at 100 C.
[2]; in triethanolamine at 165 C.
  Experimental solubility: 12.7% at 165 C.
[3]; 1-Dimethylamino-2-propanol solution, in 1-Dimethylamino-2-propanol solution, room temp, 300 rpm
  solubility: 20.2 mg/mL
[3]; 1-dimethylamino-2-propanol, in 1-Dimethylamino-2-propanol solution, room temp, 1500 sm
  solubility: 20 mg/mL
[3]; 1-dimethylamino-2-propanol/TEA, in 1-Dimethylamino-2-propanol/TEA, room temp, 300-810 rpm
  solubility: 17.3 mg/mL
[3]; 1-dimethylamino-2-propanol/ethanolamine, in 1-Dimethylamino-2-propanol/Ethanolamine, room temp, 300 rpm
  solubility: 16.6 mg/mL
[3]; 1-dimethylamino-2-propanol/ethanolamine/TEA, in 1-Dimethylamino-2-propanol/Ethanolamine/TEA, room temp, 300-500 rpm
  solubility: 16.5 mg/mL
[3]; 1-dimethylamino-2-propanol/ethylenediamine, in 1-Dimethylamino-2-propanol/Ethylenediamine, room temp, 400-600 rpm
  solubility: 20.1 mg/mL
[3]; 1-methylimidazole, 82 °C, in 1-Methylimidazole, 100 rpm
  solubility: 20.4 mg/mL
[3]; 2-amino-2-methyl-1-propanol, 71 °C, in 2-amino-2-methyl-1-propanol, 400 rpm
  solubility: 20 mg/mL
[3]; 2-amino-2-methyl-1-propanol, 71 °C, in 2-amino-2-methyl-1-propanol, 450 rpm
  solubility: 14.8 mg/mL
[3]; 2-dimethylaminoethanol, 29 °C, in 2-Dimethylaminoethanol, 300 rpm
  solubility: 19.9 mg/mL
[3]; 2-dimethylaminoethanol, in 2-Dimethylaminoethanol, room temp, 300 rpm
  solubility: 20.2 mg/mL
[3]; Dimethyl capramide, in Dimethyl capramide, Room temp, 400 rpm
  solubility: 16 mg/mL
[3]; N-methylformamide, 101 °C, in N-Methylformamide, 400 rpm
  solubility: 13.7 mg/mL
[3]; TEA (triethanolamine), 169 °C, in TEA, 450 rpm (synthetic apigenin)
  solubility: 14.7 mg/mL
[3]; TEA (triethanolamine), in TEA, room temp, 450-590 rpm
  solubility: 20 mg/mL
[3]; TEA/1-Dimethylamino-2-propanol, in TEA/1-Dimethylamino-2-propanol, room temp, 350-450 rpm
  solubility: 17 mg/mL
[3]; TEA/1-Dimethylamino-2-propanol/Ethylenediamine, in TEA/1-Dimethylamino-2-propanol/Ethylenediamine, room temp, 330-600 rpm
  solubility: 20.6 mg/mL
[3]; TEA/2-Dimethylaminoethanol/1-Dimethylamino-2-propanol, in TEA/2-Dimethylaminoethanol/1-Dimethylamino-2-propanol, room temp, 330-400, 1500 sm
  solubility: 15 mg/mL
[3]; TEA/2-Dimethylaminoethanol/1-Dimethylamino-2-propanol, in TEA/2-Dimethylaminoethanol/1-Dimethylamino-2-propanol, room temp, 1500 sm
  solubility: 15 mg/mL
[3]; Triethylene glycol, 156 °C, in Triethylene glycol, 300 rpm
  solubility: 6.11 mg/mL
[3]; diethanolamine, 128 °C, in Diethanolamine, 550 rpm
  solubility: 20.2 mg/mL
[3]; ethanolamine, 29 °C, in Ethanolamine, 350-500 rpm
  solubility: 20.1 mg/mL
[3]; ethanolamine, 76 °C, in Ethanolamine, 300 rpm
  solubility: 20.3 mg/mL
[3]; ethanolamine, 76 °C, in Ethanolamine, 400 rpm (synthetic apigenin)
  solubility: 20.2 mg/mL
[3]; ethanolamine, in Ethanolamine, room temp, 350-740 rpm
  solubility: 20.2 mg/mL
[3]; ethanolamine/TEA, 29 °C, in Ethanolamine/TEA, 300-600 rpm
  solubility: 18 mg/mL
[3]; ethanolamine/TEA, in Ethanolamine/TEA, room temp, 350-500 rpm
  solubility: 16 mg/mL
[3]; ethylenediamine, 28 °C, in Ethylenediamine, 320 rpm
  solubility: 20 mg/mL
[3]; ethylenediamine, in Ethylenediamine, room temp, 320 rpm
  solubility: 20.2 mg/mL
[3]; laurocapram, 98%, 140 °C, in Laurocapram, 500-600 rpm
  solubility: 14 mg/mL
[3]; laurocapram, 98%, in Laurocapram, room temp, 500-600 rpm
  solubility: 13.9 mg/mL
[3]; pyridine, in Pyridine, room temp, 300 rpm
  solubility: 15.8 mg/mL
[4]
  HSP δD (dispersion-force component): 18.7 MPa^0.5
  HSP δH (hydrogen-bonding component): 13.9 MPa^0.5
  HSP δP (polar component): 13.5 MPa^0.5
  solvent radius Ra: 6.8 MPa^0.5
[5]
  solubility: less than 1 mg/ml
